Laboratory results published in patent publication US9617286B2, “Fungicide N-[(trisubstitutedsilyl)methyl]-carboxamide derivatives” (BAYER INTELLECTUAL PROPERTY GMBH, priority 2011, dated 2017).

How the values were obtained:
Sphaerotheca fuliginea = test: In vivo preventive test on Sphaerotheca fuliginea (powdery mildew on cucurbits); settings: gherkin plants, preventive spray, 500 ppm of active ingredient, grading 12 days after contamination
Description: Gherkin plants (“Vert petit de Paris” variety), sown in starter cups on a 50/50 peat soil-pozzolana substrate and grown at 24° C., are treated at the Z11 cotyledon stage by spraying with the active ingredient prepared as described above. Plants, used as controls, are treated with the mixture of acetone/tween/DMSO/water not containing the active material. After 24 hours, the plants are contaminated by spraying the cotyledons with an aqueous suspension of Sphaerotheca fuliginea spores (100 000 spores per mL). The spores are collected from infected plants. The contaminated gherkin plants are incubated at about 20° C. and at 70-80% relative humidity. Grading (% of efficacy) is carried out 12 days after the contamination, in comparison with the control plants.

Alternaria brassicae = test: In vivo preventive test on Alternaria brassicae (leaf spot on radish); settings: preventive spray, 500 ppm of active ingredient, grading 6 days after contamination
Description: Radish plants (“Pernod Clair” variety), sown in starter cups on a 50/50 peat soil pozzolana substrate and grown at 17° C., are treated at the cotyledon stage by spraying with the active ingredient prepared as described above. Plants, used as controls, are treated with the mixture of acetone/tween/DMSO/water not containing the active material. After 24 hours, the plants are contaminated by spraying the cotyledons with an aqueous suspension of Alternaria brassicae spores (50 000 spores per mL). The spores are collected from a 15-day-old culture. The contaminated radish plants are incubated at 20° C. and at 100% relative humidity. Grading (% of efficacy) is carried out 6 days after the contamination, in comparison with the control plants.

Septoria tritici = test: In vivo preventive test on Septoria tritici (wheat); settings: preventive spray, 500 ppm of active ingredient, grading 24 days after contamination
Description: Wheat plants (“Scipion” variety), sown in starter cups on a 50/50 peat soil pozzolana substrate and grown at 22° C., are treated at the 1 leaf stage (10 cm height) by spraying with the active ingredient prepared as described above. Plants, used as controls, are treated with the mixture of acetone/tween/DMSO/water not containing the active material. After 24 hours, the plants are contaminated by spraying the leaves with an aqueous suspension of cryopreserved Septoria tritici spores (500 000 spores per mL). The contaminated wheat plants are incubated for 72 hours at 18° C. and at 100% relative humidity, and then for 21 days at 90% relative humidity. Grading (% of efficacy) is carried out 24 days after the contamination, in comparison with the control plants.

Uromyces appendiculatus = test: In vivo preventive test on Uromyces appendiculatus (bean rust); settings: bean plants, preventive spray, 500 ppm of active ingredient, grading 11 days after contamination
Description: Bean plants (“Saxa” variety), sown in starter cups on a 50/50 peat soil pozzolana substrate and grown at 24° C., are treated at the 2 leaf stage (9 cm height) by spraying with the active ingredient prepared as described above. Plants, used as controls, are treated with the mixture of acetone/tween/DMSO/water not containing the active material. After 24 hours, the plants are contaminated by spraying the leaves with an aqueous suspension of Uromyces appendiculatus spores (150 000 spores per mL). The spores are collected from infected plants and are suspended in water containing 2.5 mL/L of Tween 80 at 10%. The contaminated bean plants are incubated for 24 hours at 20° C. and at 100% relative humidity, and then for 10 days at 20° C. and at 70-80% relative humidity. Grading (% of efficacy) is carried out 11 days after the contamination, in comparison with the control plants.

[1] = log P by HPLC on reversed-phase column (C 18), EEC Directive 79/831 Annex V.A8; assay type: physicochemical; settings: 40° C., 0.1% aqueous formic acid and acetonitrile, linear gradient 10% to 90% acetonitrile
Method in brief: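 Reversed-phase C18 HPLC at 40° C, 0.1% aqueous formic acid/acetonitrile gradient from 10% to 90% acetonitrile. log P derived from retention times by linear interpolation between unbranched alkan-2-ones (3–16 carbons) of known log P.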

Puccinia recondita = test: In vivo preventive test on Puccinia recondita (brown rust on wheat); settings: preventive spray, 500 ppm of active ingredient, grading 12 days after contamination
Description: Wheat plants (“Scipion” variety), sown in starter cups on a 50/50 peat soil pozzolana substrate and grown at 22° C., are treated at the 1 leaf stage (10 cm height) by spraying with the active ingredient prepared as described above. Plants, used as controls, are treated with the mixture of acetone/tween/DMSO/water not containing the active material. After 24 hours, the plants are contaminated by spraying the leaves with an aqueous suspension of Puccinia recondita spores (100 000 spores per mL). The spores are collected from an infected plant and are suspended in water containing 2.5 mL/L of Tween 80 at 10%. The contaminated wheat plants are incubated for 24 hours at 20° C. and at 100% relative humidity, and then for 10 days at 20° C. and at 70-80% relative humidity. Grading (% of efficacy) is carried out 12 days after the contamination, in comparison with the control plants.

Pyrenophora teres [2] = test: In vivo preventive test on Pyrenophora teres (barley); settings: preventive spray (DMF/alkylaryl polyglycol ether), 500 ppm of active ingredient, evaluated 7-9 days after inoculation
Description: (§1) Solvent: 49 parts by weight of N,N-dimethylformamide Emulsifier: 1 part by weight of alkylaryl polyglycol ether To produce a suitable preparation of active compound, 1 part by weight of active compound is mixed with the stated amounts of solvent and emulsifier, and the concentrate is diluted with water to the desired concentration. To test for preventive activity, young plants are sprayed with the preparation of active compound at the stated rate of application. One day after this treatment, the plants are inoculated with an aqueous spore suspension of Pyrenophora teres. The plants remain for 48 hours in an incubation cabinet at 22° C. and a relative atmospheric humidity of 100%. Then the plants are placed in a greenhouse at a temperature of approximately 20° C. and a relative atmospheric humidity of approximately 80%.

Alternaria solani = test: In vivo preventive test on Alternaria solani (tomato); settings: preventive spray, 500 ppm of active ingredient, evaluated 7 days after inoculation
Description: (§2) Solvent: 49 parts by weight of N,N-dimethylformamide Emulsifier: 1 part by weight of alkylaryl polyglycol ether To produce a suitable preparation of active compound, 1 part by weight of active compound is mixed with the stated amounts of solvent and emulsifier, and the concentrate is diluted with water to the desired concentration. To test for preventive activity, young plants are sprayed with the preparation of active compound at the stated rate of application. One day after this treatment, the plants are inoculated with an aqueous spore suspension of Alternaria solani. The plants remain for one day in an incubation cabinet at approximately 22° C. and a relative atmospheric humidity of 100%. Then the plants are placed in an incubation cabinet at approximately 20° C. and a relative atmospheric humidity of 96%.

Botrytis cinerea [3] = test: In vivo preventive test on Botrytis cinerea (cucumber); settings: preventive spray (DMF/alkylaryl polyglycol ether), 500 ppm of active ingredient, evaluated 5-6 days after inoculation
Description: as §2, with “Botrytis cinerea.” for “Alternaria solani.”, “two days” for “one day”, “14°” for “20°”

Leptosphaeria nodorum = test: In vivo preventive test on Leptosphaeria nodorum (wheat); settings: preventive spray, 500 ppm of active ingredient, evaluated 7-9 days after inoculation
Description: as §1, with “sprayed with a preparation of” for “sprayed with the preparation of”, “suspension of Leptosphaeria nodorum. The plants” for “suspension of Pyrenophora teres. The plants”, “of approximately 22° C. and” for “of approximately 20° C. and”, “of approximately 90%.” for “of approximately 80%.”

Pyrenophora teres [4] = test: In vivo preventive test on Pyrenophora teres (barley) - 2nd test; settings: 2nd test (acetone/tween/DMSO), 500 ppm of active ingredient, grading 14 days after contamination
Description: Barley plants (“Plaisant” variety), sown in starter cups on a 50/50 peat soil pozzolana substrate and grown at 22° C., are treated at the 1 leaf stage (10 cm height) by spraying with the active ingredient prepared as described above. Plants, used as controls, are treated with the mixture of acetone/tween/DMSO/water not containing the active material. After 24 hours, the plants are contaminated by spraying the leaves with an aqueous suspension of Pyrenophora teres spores (12 000 spores per mL). The spores are collected from a 12-day-old culture. The contaminated barley plants are incubated for 48 hours at 20° C. and at 100% relative humidity, and then for 12 days at 20° C. at 70-80% relative humidity. Grading (% of efficacy) is carried out 14 days after the contamination, in comparison with the control plants.

Botrytis cinerea [5] = test: In vivo preventive test on Botrytis cinerea (grey mould) - 2nd test; settings: gherkin plants, 2nd test (acetone/tween/DMSO), 500 ppm of active ingredient, grading 4 to 5 days after contamination
Description: Gherkin plants (“Vert petit de Paris” variety), sown in starter cups on a 50/50 peat soil pozzolana substrate and grown at 24° C., are treated at the Z11 cotyledon stage by spraying with the active ingredient prepared as described above. Plants, used as controls, are treated with the mixture of acetone/tween/DMSO/water not containing the active material. After 24 hours, the plants are contaminated by spraying the cotyledons with an aqueous suspension of cryopreserved Botrytis cinerea spores (50 000 spores per mL). The spores are suspended in a nutrient solution composed of 10 g/L of PDB, 50 g/L of D-Fructose, 2 g/L of NH4NO3 and 1 g/L of KH2PO4. The contaminated gherkin plants are incubated at 17° C. and at 90% relative humidity. Grading (% of efficacy) is carried out 4 to 5 days after the contamination, in comparison with the control plants.

SMILES | logP [1] | Efficacy (Sphaerotheca fuliginea) [%] | Efficacy (Alternaria brassicae) [%] | Efficacy (Septoria tritici) [%] | Efficacy (Uromyces appendiculatus) [%] | Efficacy (Puccinia recondita) [%] | Efficacy (Pyrenophora teres [2]) [%] | Efficacy (Alternaria solani) [%] | Efficacy (Botrytis cinerea [3]) [%] | Efficacy (Leptosphaeria nodorum) [%] | Efficacy (Pyrenophora teres [4]) [%] | Efficacy (Botrytis cinerea [5]) [%]
C[Si](C)(CN(C(=O)c1nccnc1C(F)(F)F)C1CC1)c1ccccc1F [Example 14] | 4.18 | 98 | 95 | 93 | 84 | 98 | 100 | – | – | – | – | –
C[Si](C)(CN(C(=O)c1cccnc1C(F)F)C1CC1)c1cccc(Cl)c1 [Example 34] | 3.87 | – | – | – | – | – | 100 | 89 | 85 | 80 | – | –
C[Si](C)(CN(C(=O)c1cccnc1C(F)F)C1CC1)c1ccc(Cl)cc1Cl [Example 62] | 4.51 | 79 | – | 100 | – | 92 | 100 | 94 | – | 70 | 93 | –
C[Si](C)(CNC(=O)c1cccnc1C(F)(F)F)c1ccccc1 [Example 2] | 2.92 | 83 | – | 100 | 100 | 88 | – | – | – | – | – | –
CC1=C(C(=O)NC[Si](C)(C)c2ccccc2Cl)SCCO1 [Example 42] | 3.50 | – | – | 100 | – | 72 | – | – | – | – | 93 | –
C[Si](C)(CNC(=O)c1cccnc1C(F)F)c1ccccc1Cl [Example 22] | 3.06 | 78 | – | 96 | 96 | 100 | – | – | – | – | – | 92
C[Si](C)(CN(C(=O)c1nccnc1C(F)(F)F)C1CC1)c1cccc(Cl)c1 [Example 32] | 4.56 | – | – | – | – | – | 95 | 89 | 94 | 90 | – | –
C[Si](C)(CN(C(=O)c1nccnc1C(F)(F)F)C1CC1)c1ccc2ccccc2c1 [Example 77] | 4.80 | – | – | – | – | – | 100 | 78 | 95 | 95 | – | –
C[Si](C)(CN(C(=O)c1nccnc1C(F)(F)F)C1CC1)c1ccccc1Cl [Example 26] | 4.56 | 93 | – | 100 | – | 92 | 95 | – | 99 | 80 | – | –

The next lines start with results.

logP [1] | SMILES | Efficacy (Sphaerotheca fuliginea) [%] | Efficacy (Alternaria brassicae) [%] | Efficacy (Septoria tritici) [%] | Efficacy (Uromyces appendiculatus) [%] | Efficacy (Puccinia recondita) [%] | Efficacy (Pyrenophora teres [2]) [%] | Efficacy (Alternaria solani) [%] | Efficacy (Botrytis cinerea [3]) [%] | Efficacy (Leptosphaeria nodorum) [%] | Efficacy (Pyrenophora teres [4]) [%] | Efficacy (Botrytis cinerea [5]) [%]
4.44 | C[Si](C)(Cc1ccccc1)CN(C(=O)c1nccnc1C(F)(F)F)C1CC1 [Example 93] | – | – | – | – | – | 70 | 75 | 100 | 80 | – | –
4.82 | C[Si](C)(Cc1cccc(Cl)c1)CN(C(=O)c1nccnc1C(F)(F)F)C1CC1 [Example 105] | – | – | – | – | – | 70 | – | 93 | – | – | –
3.94 | C[Si](C)(CN(C(=O)c1nccnc1C(F)(F)F)C1CC1)c1ccsc1 [Example 86] | – | – | – | – | – | 90 | 75 | 80 | – | – | –
4.11 | C[Si](C)(CN(C(=O)c1cccnc1C(F)F)C1CC1)c1ccc2ccccc2c1 [Example 79] | – | – | – | – | – | 95 | 89 | 70 | 90 | – | –
3.80 | C[Si](C)(Cc1ccccc1)CN(C(=O)c1cccnc1C(F)F)C1CC1 [Example 92] | – | – | – | – | – | 90 | 78 | 98 | 80 | – | –
